Measured values from patent publication US20220387405A1, “METHODS OF TREATMENT WITH N-((R)-1-(3-CHLOROPYRIDIN-2-YL)-2,2,2-TRIFLUOROETHYL)-2-((S)-2,6-DIOXOPIPERIDIN-3-YL)-1-OXOISOINDOLINE-5-CARBOXAMIDE” (CELGENE CORPORATION, priority 2021, published 2022).
pIC50: −log10 of the molar value. Read-outs that look alike come from different tables or passages of the source.

Key:
TP53 WT AML cell lines = test: Cell autonomous activity against TP53 WT AML cell lines; assay type: cell-based
Excerpt: The remaining 5 cell lines were either medium-sensitive or completely resistant to Compound 1; the unresponsiveness to Compound 1 treatment was associated with inadequate accumulation of p53 protein and/or its transcriptional targets BAX and PUMA.

[1] = system: MV-4-11-luc disseminated AML xenograft; test: MV-4-11-luc disseminated AML xenograft model, tumor burden and survival; assay type: in vivo, mice
Description: The CK1α degradation activity and subsequent antitumor activity of Compound 1 in vivo was tested in two TP53 WT AML cell line-derived xenograft models. The depth and duration of CK1α degradation was dose-dependent.
In a subsequent study, MV-4-11-luc disseminated AML xenografts were treated with 2 cycles of fixed doses and varying dosing duration (5/28 days, 7/28 days and 14/28 days). […] In Kaplan-Meier survival analysis following cessation dosing, the median survival of the vehicle treated animals was 45.5 days. […] The median survival of animals treated with Compound 1 with 2 cycles of 7/28-days at 10, 30, and 50 mg/kg was 67.5 (p<0.0001), 70 (p<0.0001), and 70 (p<0.0001) days, respectively. For the animals treated with 2 cycles of 14/28-days at 3, 10 and 30 mg/kg was 69.5 (p<0.0001), 94.5 (p<0.0001) and 152 (p<0.0001) days, respectively. For 30 mg/kg with 14/28-day cycle, 4/10 animals remained tumor free at the termination of the study on day 154.

CYP2C9 = biological target: T1, CYP2C9 (Homo sapiens, UniProt P11712); test: CYP inhibition in human liver microsomes, CYP2C9; assay type: in vitro ADME
T1 construct: In human liver microsomes; from tissue; host or cells: human liver microsomes

CYP3A4/5 = test: CYP inhibition in human liver microsomes, CYP3A4/5; assay type: in vitro ADME
CYP3A4 = test: CYP induction in human hepatocyte culture, CYP3A4 mRNA; assay type: in vitro ADME; conditions: up to 50 μM for three consecutive days
[2] = GLP repeat-dose toxicity and toxicokinetics study in monkeys; assay type: in vivo, cynomolgus monkeys; conditions: for AUC / Cmax: plasma, po
Description: Cardiovascular assessments (electrocardiograms [ECGs] and heart rates) were conducted in conscious cynomolgus monkeys as part of the Good Laboratory Practice (GLP)-compliant repeat dose toxicity study. In this study, Compound 1 was administered by oral gavage to Cynomolgus monkeys (5/sex/group) in Groups 1-5 at doses of 0 (0.5% (w/v) Methylcellulose, 0.25% (v/v) Tween 80 in 50 mM citrate buffer pH 3), 0.03, 0.1, 0.1 and 0.3 mg/kg, respectively, intermittently using 2 different dosing regimens. Groups 2 and 3 animals were dosed for 7 consecutive days in each 4-week cycle for 2 cycles (Regimen 1: on Days 1-7 and 29-35), whereas Groups 4 and 5 animals were dosed twice weekly for 4 weeks (Regimen 2: on Days 1, 4, 8, 11, 15, 18, 22 and 25). A combination of both dosing regimens (Days 1-7, 8, 11, 15, 18, 22, 25, and 29-35) was used for administration of the vehicle to the control animals. A 9-lead ECG recording was made on all animal during pretest and on all animals in Groups 4 and 5 on Day 22 (1 hour postdose±15 minutes) and on all animals in Groups 1, 2 and 3 during Week 5 (1 hour postdose±15 minutes) using standard limb leads I, II and III; augmented leads aVR, aVL and aVF as well as chest leads MV1, MV2 and MV3. All ECGs were performed while the unanesthetized animal was sitting in an up-right position in a restraint chair. Qualitative (visual inspection) and quantitative assessments including heart rates and PR, QRS, RR, QT, and QTc intervals were performed. QTc was calculated using Bazett's formula.
In a repeat-dose toxicity study in monkeys, Compound 1 was administered by oral gavage intermittently using 2 different dosing regimens. Animals in Regimen 1 were dosed for 7 consecutive days in each 4-week cycle for 2 cycles (0.03 or 0.1 mg/kg on Days 1-7 and 29-35), whereas animals in Regimen 2 were dosed twice weekly for 4 weeks (0.1 or 0.3 mg/kg on Days 1, 4, 8, 11, 15, 18, 22 and 25).
End of dosing necropsy was performed on the day after the last dose administration. A 4-week recovery period was included to assess reversibility of findings. Administration of Compound 1 was associated with mortality at 0.1 mg/kg using Regimen 1 during the recovery phase. Three animals (2 males and 1 female) were euthanized for welfare reasons and one female was found dead due to reduction (marked to severe) in BM cellularity resulting in severe leukopenia and likely bacteremia, as well as in severe thrombocytopenia with disseminated petechial hemorrhage.

[3] = both sexes, cynomolgus monkey, 0.03 mg/kg, Regimen 1, sexes combined
[4] = both sexes, cynomolgus monkey, 0.1 mg/kg, Regimen 2, sexes combined

T1 sequence (P11712 whole entry): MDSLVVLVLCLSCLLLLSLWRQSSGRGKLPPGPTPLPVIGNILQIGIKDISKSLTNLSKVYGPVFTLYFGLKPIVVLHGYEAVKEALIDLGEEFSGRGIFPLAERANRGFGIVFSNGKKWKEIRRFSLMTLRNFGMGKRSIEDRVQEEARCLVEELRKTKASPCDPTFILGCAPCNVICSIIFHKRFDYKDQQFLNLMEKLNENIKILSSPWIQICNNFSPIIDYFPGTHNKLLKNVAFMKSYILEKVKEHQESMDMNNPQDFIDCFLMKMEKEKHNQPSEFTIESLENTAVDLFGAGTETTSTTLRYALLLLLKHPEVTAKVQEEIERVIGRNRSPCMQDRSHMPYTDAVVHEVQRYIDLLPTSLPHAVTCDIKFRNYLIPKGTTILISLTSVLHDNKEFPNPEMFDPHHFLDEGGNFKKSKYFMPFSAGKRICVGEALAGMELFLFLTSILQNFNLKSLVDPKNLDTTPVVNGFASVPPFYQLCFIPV

With O=C1CC[C@H](N2Cc3cc(C(=O)N[C@H](c4ncccc4Cl)C(F)(F)F)ccc3C2=O)C(=O)N1 [Compound 1, N-((R)-1-(3-chloropyridin-2-yl)-2,2,2-trifluoroethyl)-2-((S)-2,6-dioxopiperidin-3-yl)-1-oxoisoindoline-5-carboxamide] the “number of cell lines sensitive to Compound 1” value (TP53 WT AML cell lines; of the 13 TP53 WT AML cell lines tested) was 8, the pIC50 (TP53 WT AML cell lines; the 8 sensitive of 13 TP53 WT AML cell lines tested) was 6.30 to 7.82 and the “animals remaining tumor free at termination of the study” value ([1]; 30 mg/kg, 14/28-day cycle, day 154) was 4/10. The median survival ([1]; 2 cycles of 5/28-days at 50 mg/kg, vehicle 45.5 days) was 68.5 days, the median survival ([1]; 2 cycles of 7/28-days at 10 mg/kg) was 67.5 days and the median survival ([1]; 2 cycles of 7/28-days at 30 mg/kg) was 70 days. The median survival ([1]; 2 cycles of 7/28-days at 50 mg/kg) was 70 days, the median survival ([1]; 2 cycles of 14/28-days at 3 mg/kg) was 69.5 days and the median survival ([1]; 2 cycles of 14/28-days at 10 mg/kg) was 94.5 days. For the same compound, the median survival ([1]; 2 cycles of 14/28-days at 30 mg/kg) was 152 days, the tumor burden ([1]; mice with disseminated MV-4-11 AML, dose-, schedule- and duration-dependent) was “significantly reduced” and the time-dependent inhibition (CYP2C9; CYP2C9, 30-minute preincubation with NADPH) was “not a time-dependent inhibition”. For the same compound, the pIC50 (CYP2C9; human liver microsomes, CYP2C9) was < 4.52, the pIC50 (CYP3A4/5; human liver microsomes, CYP3A4/5) was < 4.52 and the inhibition at 30 min, 30 µM (CYP3A4/5; human, liver microsomes, CYP3A4/5, at 30 μM, 30-minute preincubation with NADPH, read-out: time-dependent inhibition) was < 20%. For the same compound, the “mRNA expression of CYP3A4” value (CYP3A4) was “no dose-dependent increases”, the lethality ([2]; 0.1 mg/kg, Regimen 1, during the recovery phase) was “mortality” and the “sex-combined mean maximum observed plasma concentration” value ([2]; 0.1 mg/kg/day, Regimen 1, Day 34) was 31.9 ng/mL. For the same compound, the “fold higher than anticipated human Cmax of 0.4 ng/mL” value ([2]; 0.1 mg/kg/day, Regimen 1, Day 34 vs human starting dose 0.1 mg/day) was “approximately 80 fold”, the “sex-combined mean maximum observed plasma concentration” value ([2]; 0.3 mg/kg/day, Regimen 2, Day 15) was 62.6 ng/mL and the “fold higher than anticipated human Cmax of 0.4 ng/mL” value ([2]; 0.3 mg/kg/day, Regimen 2, Day 15 vs human starting dose 0.1 mg/day) was ~157 fold. The “highest non-STD (HNSTD)” value ([2]; Regimen 1) was 0.03 mg/kg, the “highest non-STD (HNSTD)” value ([2]; Regimen 2) was 0.1 mg/kg and the NOAEL ([2]; Regimen 2 (twice weekly for 4 weeks)) was “not identified”. For the same compound, the NOAEL ([2]; both sexes, cynomolgus monkey, in vivo, Regimen 1 (Days 1-7 and 29-35), oral gavage, read-out: NOAEL) was 0.03 mg/kg, the AUC [2, 3] was 51.4 ng·h/mL and the Cmax [2, 3] was 9.95 ng/mL. It also gave an AUC [2, 4] of 173 ng·h/mL and a Cmax [2, 4] of 21.5 ng/mL.
